Where two headings read alike, the source gives them in different places. Where a SMILES comes first, the peptide text is derived from it. The star is where a group is joined. Succinyl(4-O-cholesteryl) = CC(C)CCC[C@@H](C)[C@H]1CC[C@H]2[C@@H]3CC=C4C[C@@H](OC(=O)CCC(=O)*)CC[C@]4(C)[C@H]3CC[C@]12C

One data set has as its system HIV-1. Put plainly: Inhibition of HIV-1 by HIV-1 fusion inhibitors (Table S1). The following applies: Table S1, in words only. It is filed as cell-based.
Another data set deals with SIVPBJ pseudovirus. Particulars: 48 h.
In another data set the test system is SIV239 pseudovirus. The following applies: 48 h.
For another data set, the system named is SARS-CoV-2. Put plainly: Inhibition of SARS-CoV-2 by HIV-1 fusion inhibitors (Table S1). It is filed as cell-based. The following applies: at a concentration as high as 25 or 50 μM (Table S1).
Another data set deals with primary HIV-1 Envs. Put plainly: DSP-based cell–cell fusion assay, panel of primary HIV-1 Envs.
The subject of a further data set is HIV-2ST. Particulars: read-out: IC50, inhibition of HIV-2ST infection; Fig 2B; replication-competent virus, TZM-bl cells, 48 h; mean IC50, repeated three times.
In the next data set the test system is H5N1 pseudovirus. The following applies: 48 h.
The subject of another data set is HIV-1NL4-3 Env. It is filed as cell-based. Particulars: Table 2; HIV-1NL4-3 Env-mediated cell–cell fusion; triplicate, repeated three times; read-out: IC50 ± SD, Env cell fusion.
For the next data set, the system named is HIV-2ROD. The following applies: read-out: IC50, inhibition of HIV-2ROD infection; Fig 2A; replication-competent virus, TZM-bl cells, 48 h; mean IC50, repeated three times.
For a further data set, the system named is H7N9 pseudovirus. Particulars: 48 h.
In data set [1] the test system is gp41 HR1-derived peptides (N42, N36, and N38). Put plainly: Size-exclusion chromatography of EK1 with gp41 HR1-derived peptides. The data set is classed as binding, HIV-1. The following applies: molar ratio 1:1, 0.2 mM, 0.05M sodium phosphate pH 7.2, 37°C 30 min; Superdex-75. The protocol:
The binding between EK1 peptide and a target mimic peptide derived from the HR1 sequence of gp41 was analysed by size-exclusion chromatography. In brief, EK1 was mixed with N42, N36 or N38 (molar ratio of 1:1) in 0.05M sodium phosphate (pH 7.2) at a final concentration of 0.2 mM, and then incubated at 37°C for 30 min. The mixture was applied to the Superdex-75 10/300 GL (GE Healthcare, Piscataway, NJ, USA) equilibrated with 50 mM sodium phosphate and eluted at 0.8 ml/min, and fractions were monitored at 214 nm.

The next data set relates to RSV pseudovirus. The following applies: 48 h.
Where [2] appears, read: HIV-1 Env 246_F3_C10_2, subtype A/C, triplicate, repeated three times, read-out: Cell fusion (IC50±SD).
The mark [3] stands for this setting: HIV-1 Env 398-F1_F6_20, subtype A, triplicate, repeated three times, read-out: Cell fusion (IC50±SD).
Setting [4] is: HIV-1 Env BJOX002000.03.2, subtype B/C, triplicate, repeated three times, read-out: Cell fusion (IC50±SD).
Where [5] appears, read: HIV-1 Env CE1176_A3, subtype C, triplicate, repeated three times, read-out: Cell fusion (IC50±SD).
Setting [6] is: HIV-1 Env CE703010217_B6, subtype C, triplicate, repeated three times, read-out: Cell fusion (IC50±SD).
Where [7] appears, read: HIV-1 Env CH119.10, subtype B/C, triplicate, repeated three times, read-out: Cell fusion (IC50±SD).
Where [8] appears, read: HIV-1 Env CNE8, subtype A/E, triplicate, repeated three times, read-out: Cell fusion (IC50±SD).
[9] abbreviates: HIV-1 Env CNE55, subtype A/E, triplicate, repeated three times, read-out: Cell fusion (IC50±SD).
Where [10] appears, read: HIV-1 Env HIV_25710-2.43, subtype C, triplicate, repeated three times, read-out: Cell fusion (IC50±SD).
Where [11] appears, read: HIV-1 Env SF162, subtype B, triplicate, repeated three times, read-out: Cell fusion (IC50±SD).
Where [12] appears, read: HIV-1 Env TRO.11, subtype B, triplicate, repeated three times, read-out: Cell fusion (IC50±SD).
Where [13] appears, read: HIV-1 Env X1632-S2-B10, subtype G, triplicate, repeated three times, read-out: Cell fusion (IC50±SD).
Setting [14] is: HIV-1 Env X2278_C2_B6, subtype B, triplicate, repeated three times, read-out: Cell fusion (IC50±SD).
Where [15] appears, read: Mean over 14 primary HIV-1 Envs of Table 1, read-out: Cell fusion, mean IC50 over the panel.

For Enfuvirtide, the “Inhibition of HIV-1” value with HIV-1 is “potently inhibited HIV-1”. The IC50 with SIVPBJ pseudovirus is 480 nM; with SIV239 pseudovirus, 390 nM. Besides, in the data set on SARS-CoV-2, the “Inhibitory activity against SARS-CoV-2” value is listed as “none was found to have inhibitory activity”.
Consider sifuvirtide, for which the “Inhibition of HIV-1” value in the data set on HIV-1 is reported as “potently inhibited HIV-1”. In addition, the “Inhibitory activity against SARS-CoV-2” value in the data set with SARS-CoV-2 is given as “none was found to have inhibitory activity”.
Regarding “SLDQINVTFLDLEYEMKKLEEAIKKLEESYIDLKEL-GSGSG-PEG4-C(Chol) [EK1C4]”, the “Cytotoxicity on TZM-bl cells” value in the data set with TZM-bl cells was “none of them at a concentration of 10 or 25 μM showed significant cytotoxic effects”. For the same compound, the “Cytotoxicity on HEK293T cells” value in the data set with HEK293T cells is recorded as “none of them at a concentration of 10 or 25 μM showed significant cytotoxic effects”.
For the compound `CC[C@H](C)[C@H](NC(=O)[C@H](C)NC(=O)[C@H](CCC(=O)O)NC(=O)[C@H](CCC(=O)O)NC(=O)[C@H](CC(C)C)NC(=O)[C@H](CCCCN)NC(=O)[C@H](CCCCN)NC(=O)[C@H](CCSC)NC(=O)[C@H](CCC(=O)O)NC(=O)[C@H](Cc1ccc(O)cc1)NC(=O)[C@H](CCC(=O)O)NC(=O)[C@H](CC(C)C)NC(=O)[C@H](CC(=O)O)NC(=O)[C@H](CC(C)C)NC(=O)[C@H](Cc1ccccc1)NC(=O)[C@@H](NC(=O)[C@@H](NC(=O)[C@H](CC(N)=O)NC(=O)[C@@H](NC(=O)[C@H](CCC(N)=O)NC(=O)[C@H](CC(=O)O)NC(=O)[C@H](CC(C)C)NC(=O)[C@H](CO)NC(C)=O)[C@@H](C)CC)C(C)C)[C@@H](C)O)C(=O)N[C@@H](CCCCN)C(=O)N[C@@H](CCCCN)C(=O)N[C@@H](CC(C)C)C(=O)N[C@@H](CCC(=O)O)C(=O)N[C@@H](CCC(=O)O)C(=O)N[C@@H](CO)C(=O)N[C@@H](Cc1ccc(O)cc1)C(=O)N[C@H](C(=O)N[C@@H](CC(=O)O)C(=O)N[C@@H](CC(C)C)C(=O)N[C@@H](CCCCN)C(=O)N[C@@H](CCC(=O)O)C(=O)N[C@@H](CC(C)C)C(N)=O)[C@@H](C)CC` [EK1], the “Cytotoxicity on TZM-bl cells” value with TZM-bl cells is recorded as “none of them at a concentration of 10 or 25 μM showed significant cytotoxic effects”. The half-maximal inhibitory concentration (IC50) in the data set on primary HIV-1 Envs (setting [2]), in the data set with primary HIV-1 Envs (setting [3]), with primary HIV-1 Envs (setting [4]), with primary HIV-1 Envs (setting [5]), with primary HIV-1 Envs (setting [6]) and in the data set on primary HIV-1 Envs (setting [7]) was over 5000 nM in each case. The IC50 in the data set with primary HIV-1 Envs (setting [8]) is over 5000 nM; in the data set on primary HIV-1 Envs (setting [9]), over 5000 nM; in the data set on primary HIV-1 Envs (setting [10]), over 5000 nM; with primary HIV-1 Envs (HIV-1 Env JRFL, subtype B, triplicate, repeated three times, read-out: Cell fusion (IC50±SD)), over 5000 nM; in the data set on primary HIV-1 Envs (setting [11]) it was over 5000 nM; with primary HIV-1 Envs (setting [12]) it was over 5000 nM. The IC50 in the data set on primary HIV-1 Envs (setting [13]) is over 5000 nM; in the data set with primary HIV-1 Envs (setting [14]) it was over 5000 nM; in the data set with primary HIV-1 Envs (setting [15]) it was over 5000 nM; in the data set on HIV-2ST, over 12500 nM; in the data set on H5N1 pseudovirus it was over 25000 nM; in the data set with HIV-1NL4-3 Env, over 5000 nM. In addition, the 50% inhibitory concentration (IC50) in the data set on SIVPBJ pseudovirus is over 12500 nM; with HIV-2ROD it was over 12500 nM; in the data set with SIV239 pseudovirus, over 12500 nM; in the data set with H7N9 pseudovirus, over 25000 nM; with RSV pseudovirus it was over 25000 nM. In addition, the “Complex formation with gp41 HR1-derived peptides N42, N36, N38 by size-exclusion chromatography” value in data set [1] was “could form peptide complexes”. In addition, the “Cytotoxicity on HEK293T cells” value in the data set on HEK293T cells was “none of them at a concentration of 10 or 25 μM showed significant cytotoxic effects”.
Regarding `CC[C@H](C)[C@H](NC(=O)[C@H](C)NC(=O)[C@H](CCC(=O)O)NC(=O)[C@H](CCC(=O)O)NC(=O)[C@H](CC(C)C)NC(=O)[C@H](CCCCN)NC(=O)[C@H](CCCCN)NC(=O)[C@H](CCSC)NC(=O)[C@H](CCC(=O)O)NC(=O)[C@H](Cc1ccc(O)cc1)NC(=O)[C@H](CCC(=O)O)NC(=O)[C@H](CC(C)C)NC(=O)[C@H](CC(=O)O)NC(=O)[C@H](CC(C)C)NC(=O)[C@H](Cc1ccccc1)NC(=O)[C@@H](NC(=O)[C@@H](NC(=O)[C@H](CC(N)=O)NC(=O)[C@@H](NC(=O)[C@H](CCC(N)=O)NC(=O)[C@H](CC(=O)O)NC(=O)[C@H](CC(C)C)NC(=O)[C@H](CO)NC(C)=O)[C@@H](C)CC)C(C)C)[C@@H](C)O)C(=O)N[C@@H](CCCCN)C(=O)N[C@@H](CCCCN)C(=O)N[C@@H](CC(C)C)C(=O)N[C@@H](CCC(=O)O)C(=O)N[C@@H](CCC(=O)O)C(=O)N[C@@H](CO)C(=O)N[C@@H](Cc1ccc(O)cc1)C(=O)N[C@H](C(=O)N[C@@H](CC(=O)O)C(=O)N[C@@H](CC(C)C)C(=O)N[C@@H](CCCCN)C(=O)N[C@@H](CCC(=O)O)C(=O)N[C@@H](CC(C)C)C(=O)N[C@@H](CCCCNC(=O)CCC(=O)O[C@H]1CC[C@@]2(C)C(=CC[C@H]3[C@@H]4CC[C@H]([C@H](C)CCCC(C)C)[C@@]4(C)CC[C@@H]32)C1)C(N)=O)[C@@H](C)CC` [EK1V1] (Ac-SLDQINVTFLDLEYEMKKLEEAIKKLEESYIDLKELK(Succinyl(4-O-cholesteryl))-NH2; N-terminus and C-terminus assumed), in the data set with TZM-bl cells, the “Cytotoxicity on TZM-bl cells” value is given as “none of them at a concentration of 10 or 25 μM showed significant cytotoxic effects”. Also, the concentration for half-maximal inhibition (IC50) in the data set on primary HIV-1 Envs (setting [2]) is 50 ± 10 nM; in the data set with primary HIV-1 Envs (setting [3]), 170 ± 10 nM; with primary HIV-1 Envs (setting [4]) it was 70 ± 10 nM; with primary HIV-1 Envs (setting [5]), 350 ± 100 nM; in the data set on primary HIV-1 Envs (setting [6]), 40 ± 10 nM; in the data set with primary HIV-1 Envs (setting [7]), 20 ± 4 nM. The half-maximal inhibitory concentration (IC50) with primary HIV-1 Envs (setting [8]) was 490 ± 90 nM; in the data set on primary HIV-1 Envs (setting [9]), 130 ± 30 nM; in the data set on primary HIV-1 Envs (setting [10]) it was 170 ± 30 nM; in the data set on primary HIV-1 Envs (setting [11]), 50 ± 10 nM; in the data set with primary HIV-1 Envs (setting [12]), 680 ± 170 nM; in the data set with primary HIV-1 Envs (setting [13]), 40 ± 10 nM. Further, the IC50 with primary HIV-1 Envs (setting [14]) was 50 ± 4 nM; with primary HIV-1 Envs (setting [15]), 170 nM; in the data set with H5N1 pseudovirus, over 25000 nM; in the data set on SIVPBJ pseudovirus it was 310 nM; with SIV239 pseudovirus, 1430 nM; in the data set on H7N9 pseudovirus, over 25000 nM. Also, the half-inhibitory concentration (IC50) with RSV pseudovirus was over 25000 nM; with HIV-1NL4-3 pseudovirus (1NL4-3 pseudovirus, 48 h) it was 39.8 nM; with HIV-1NL4-3 pseudovirus (Table 3, […], mean ± SD, triplicate, repeated three times), 40 ± 2 nM. In the data set on HEK293T cells, the “Cytotoxicity on HEK293T cells” value is recorded as “none of them at a concentration of 10 or 25 μM showed significant cytotoxic effects”. The compound also came in with a n-fold with HIV-1NL4-3 pseudovirus of 1.
Take albuvirtide: in the data set with HIV-1, the “Inhibition of HIV-1” value is “potently inhibited HIV-1”. Also, in the data set with SARS-CoV-2, the “Inhibitory activity against SARS-CoV-2” value was “none was found to have inhibitory activity”.
